In test [1] the test system is G6PAse, PEPCK, SCD1, DGAT2, FASn, SREBP1c, PPARα, PGC1α. Put plainly: Liver expression of gluconeogenesis and lipogenesis genes (real-time PCR). In kind it is in vivo, mouse. The conditions noted are these: liver of ob/ob mice. On the procedure: The expression of key genes involved in gluconeogenesis and lipogenesis was measured. RNA was isolated from liver samples of the ob/ob mice and mRNA expression of the indicated genes was quantified by Real-time PCR using iTaq Fast SYBR Green Supermix with ROX (Bio-Rad) in a 7500 Real-Time PCR systems (Applied Biosystems) using mouse specific primers. Gene expression is normalized to 18s. RNA was isolated using Trizol (Invitrogen). cDNA was generated using High Capacity cDNA Reverse Transcription kit (Applied Biosystems). Real-time PCR was performed with iTaq Fast SYBR Green Supermix with ROX (Bio-Rad) in 7500 Real-Time PCR systems (Applied Biosystems) using mouse specific primers. Gene expression was normalized to 18s. Isolated liver tissue was homogenized in RIPA buffer containing protease inhibitors and phosphatase inhibitors (Roche). Protein samples were matched for their protein concentrations and 30 micrograms of each sample were applied to SDS-PASE and transferred onto nitrocellulose membrane. Membranes were then incubated with the corresponding phosphor or total primary antibodies specific for the desired proteins followed by incubation with appropriate secondary antibodies conjugated to horseradish peroxidase (Pierce) and signal intensities were visualized by Chemiluminescence (Pierce). Films from at least four independent experiments were scanned and densities of the immunoreactive bands were evaluated using NIH Image software. GAPDH (Santa Cruz Biotechnology) was used as a loading control.

The next test deals with ob/ob mice. The test is described as follows: Glucose tolerance test (GTT). The test is classed as in vivo, mouse. The conditions noted are these: day 7 post-injection, compared with vehicle. On the procedure: Both glucose (GTT) and insulin (ITT) tolerance tests were performed following a 10-hr fast and an additional 2-hr after CDNs injection with baseline blood glucose measurement taken before the beginning of the test. For the GTT, D-glucose dissolved in 0.9% NaCl was delivered intraperitoneally at a dose of 1 g/kg. The blood glucose level was measured 0, 15, 30, 60, 90, and 120 min after glucose administration. For the ITT, insulin was administered intraperitoneally at a dose of 1 IU/kg. The blood glucose level was measured 0, 15, 30, 60, 90, and 120 min after insulin administration. Glucose levels were measured in blood samples drawn from the tail vein using OneTouch Ultra 2 Meter (LifeScan, Inc.).

The next test deals with PS1/APP mice. The test is described as follows: Alzheimer's disease model, 2-photon Ca2+ imaging of CA1 pyramidal neurons in brain slices. In kind it is in vivo, mouse. The conditions noted are these: 10 mg/kg IP for 4 weeks, vs saline. The source says:
PS1/APP mice (PS1M146V and APPSWE) (Howlett et al., Brain Res. 2004, 1017, 130-136) were used. Age-matched NTg controls were on the same background strain (C57bl6/J9).
Mice were deeply anesthetized with halothane and rapidly decapitated. The brains were extracted rapidly and 300 or 400 μm-thick transverse hippocampal slices were cut with a vibrating microtome into ice-cold oxygenated artificial cerebrospinal fluid (aCSF) with the following composition (in mM): 125 NaCl, 2.5 KCl, 1.25 KH2PO4, 1.2 MgSO4, 2 CaCl2, 10 dextrose, and 25 NaHCO3.
Ca^2+ imaging within individual neurons was performed in brain slice preparations using a custom-made video-rate multiphoton-imaging system based on an upright Olympus BX51 microscope frame. […] Emitted fluorescence light was detected by a wide-field photomultiplier (Electron Tubes) to derive a video signal that was captured and analyzed by Video Savant 5.0 software (IO Industries). […] For clarity, results are expressed as inverse ratios so that increases in [Ca^2+] correspond to increasing ratios. The % change is calculated as […], where F is the average resting fluorescence at baseline and ΔF is the decrease of fluorescence reflecting Ca release. Differences between drug- and saline-treated groups were assessed using two-way ANOVA and Scheffe post hoc analysis for significance (p<0.05). […]

Test [2] deals with 6-OHDA lesioned Wistar rats. Put plainly: Rat unilateral 6-OHDA model of Parkinson's disease, initiation time (IT) test. In kind it is in vivo. The conditions noted are these: D11, 10 mg/kg IP once daily for 15 days, t test, vs 6-OHDA/Vehicle. On the procedure: Fifty adult male Wistar rats were used. The rats from different groups (G1 to G5) were randomized. At the beginning of the study, the rats were about 5 weeks old and naive to previous administration of any drug.
A stereotaxic injection of 6-OHDA (G2 to G5) or saline (G1: sham group) was performed to induce a unilateral dopaminergic lesion on day 0 (D0). Surgery was performed on D0 under ketamine (50 mg/kg) and xylazine (10 mg/kg). The rats of G2 to G5 received a unilateral injection of 6-OHDA (6 μL) in the left substantia nigra pars compacta. Jouve et al., J. Neurosci. 2010, 30, 9919-9928. The rats of the G1 sham group were injected with saline. During surgery, local analgesia was achieved using subcutaneous injections of lidocaine. At the end of surgery, the rats were treated with buprenorphine (0.05 mg/kg, S.C.).
The IT test was performed both before the 6-OHDA lesion induction on D0 and on day 11 (D11) after the 6-OHDA lesion induction. Around six days (D−6) before the 6-OHDA lesion induction, the IT test was performed eight consecutive times for each limb of each rat to obtain baseline values. On D11, the IT test was performed one hour after the rats were dosed. For every test, only one of the two forelimbs of each rat was left free to move and the time that is necessary to initiate the movement toward a plane surface was recorded using 180 sec as break-off point. […]

Test [3] deals with HeLa cells overexpressing BI-1. Put plainly: Effect on [Ca2+]ER, ER cameleon in HeLa cells overexpressing BI-1. The conditions noted are these: HeLa cells overexpressing BI-1, treated 24 hrs. The test is classed as cell-based. On the procedure: To directly measure ER Ca^2+ content, a genetically encoded Ca^2+ indicator, ER cameleon, was used. HeLa cells were transfected with ER-cameleon encoding plasmid for 2 days before analysis. Cells were treated with a test compound for 24 hrs and imaged in Ca^2+-free HBSS upon addition of thapsigargin to deplete ER stores. Emission ratio imaging of the ER cameleon was accomplished using a 430/24 excitation filter, 450-nm dichroic mirror, and two emission filters (475/40 for CFP and 535/25 for YFP). The fluorescence ratio of YFP/CFP is a measure of relative ER Ca^2+ levels.

For `Cc1ccc2cccc(NC(=O)c3ccc(OC(C)C)cc3)c2n1` [Compound A12, 4-Isopropoxy-N-(2-methylquinolin-8-yl)benzamide], in test [1], the “expression of PPARα and its target PGC1α” value was “increased”; the “mRNA expression of G6PAse and PEPCK” value is “significantly reduced”; the “mRNA expression of lipogenic genes (SCD1, DGAT2, FASn, SREBP1c)” value is listed as “significantly reduced”. The “hyperglycemic response to the i.p. glucose challenge (GTT)” value with ob/ob mice is recorded as “significantly reduced”. Besides, the “ER Ca2+ signaling (RyR-Ca2+ response to caffeine)” value in the test on PS1/APP mice is “restores ER Ca^2+ signaling”. Besides, in test [2], the “akinesia measured in the IT test” value is reported as “statistically significant improvement”. Moreover, in test [3], the “[Ca2+]ER” value is reported as “significantly restored”.

These data come from patent US20170281611A1, “QUINOLINES AND THEIR USE FOR TREATING ENDOPLASMIC RETICULUM STRESS-CAUSED DISEASES” (EIGER BIOPHARMACEUTICALS, INC., priority 2014, published 2017).
